Several values for one entry are separate records, joined by “and”; a condition that tells them apart may be missing. Identical values can stand only once.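 A five-concentration, 48-hour dose response in 96-well plates underlies each endpoint, interpolated linearly between surrounding concentrations. At the GI50, growth is halved. TGI marks complete inhibition of growth.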
Key:
Assay in all cases: growth of human tumour cells (NCI), 48 h
BT-549 breast = test system: BT-549 breast
LOX IMVI melanoma = test system: LOX IMVI melanoma
MDA-MB-231 breast = test system: MDA-MB-231 breast
MDA-MB-435 = test system: MDA-MB-435
NCI-H226 lung = test system: NCI-H226 lung
RPMI-8226 leukemia = test system: RPMI-8226 leukemia
SK-MEL-28 melanoma = test system: SK-MEL-28 melanoma
SR leukemia = test system: SR leukemia
T-47D breast = test system: T-47D breast
UACC-257 melanoma = test system: UACC-257 melanoma

Structure (SMILES) | GI50 (BT-549 breast) [µM] | TGI (BT-549 breast) [µM] | GI50 (LOX IMVI melanoma) [µM] | TGI (LOX IMVI melanoma) | GI50 (MDA-MB-231 breast) [µM] | TGI (MDA-MB-231 breast) [µM] | GI50 (MDA-MB-435) [µM] | TGI (MDA-MB-435) [µM] | GI50 (NCI-H226 lung) [µM] | TGI (NCI-H226 lung) [µM] | GI50 (RPMI-8226 leukemia) [µM] | TGI (RPMI-8226 leukemia) [µM] | GI50 (SK-MEL-28 melanoma) [µM] | TGI (SK-MEL-28 melanoma) [µM] | GI50 (SR leukemia) | TGI (SR leukemia) | GI50 (T-47D breast) [µM] | TGI (T-47D breast) [µM] | GI50 (UACC-257 melanoma) [µM] | TGI (UACC-257 melanoma)
Cc1cn2c(/C=C3/C(=O)Nc4ccc(F)cc43)c(C)nc2s1 | 8.52 | > 50 | 10.3 | > 50 µM | 12.1 | > 50 | 1.26 | 2.97 | 17.1 | > 50 | 20.3 | > 50 | 4.11 | > 50 | 1.67 µM | 5.14 µM | 10.2 | > 50 | 36.2 | > 50 µM
CN1CCN(Cc2ccc(NC(=O)c3cncc(C#Cc4cnn5ccccc45)c3)cc2C(F)(F)F)CC1 | 1.47 | 4.11 | 0.588 | 1.37 µM | 0.608 | 3.05 | 0.729 | 1.7 | 0.592 | 3.43 | 0.57 | 1.82 | 1.22 | 3.53 | 0.322 µM | 2.82 µM | 1.4 | 5.78 | 1.15 | 3 µM
COC(=O)c1ccc2c(c1)c1c(C)c3ccncc3c(C)c1n2C | 0.925 | 36.2 | 0.0887 | 10.8 µM | 0.391 | > 100 | 0.437 | 22.9 | 0.352 | 13.2 | 0.259 | 25.1 | 0.441 | 50.1 | 0.0575 µM | 3.39 µM | 0.661 | > 100 |  | 
CC[C@@H](C)Nc1cc(C(=O)NC2CC3CCC(C2)N3c2ccc(C(=O)C3CC3)cn2)c(C)cc1C(N)=O (stereo partly specified) | 5.54 | > 84.9 | 0.0301 | 0.102 µM | 0.0538 | > 100 | 0.0391 | > 39.3 | 0.0568 | 51.1 | 0.0538 | > 74.3 | 0.0519 | > 100 | 0.0189 µM | > 47.6 µM | 0.0378 | 36 | 0.04 | 32 µM
CCc1nc2cc(/C=C/C(=O)NO)ccc2c(=O)n1CCc1ccc(F)cc1 | 2.84 | 9.14 | 1.35 | 2.78 µM | 1.32 | 4.67 | 1.7 | 4.38 | 1.71 | 4.59 | 0.99 | > 100 | 1.85 | 4.15 | 1.74 µM | > 100 µM | 0.629 | 6.23 | 2.24 | 5.92 µM
C1CCN2CC3CCCN4CCCC(C2C1)C34 (stereo unspecified) |  | > 100 |  | > 100 µM |  | > 100 |  | > 100 |  | > 100 |  | > 100 |  | > 100 |  | > 100 µM |  | > 100 |  | > 100 µM
O=c1c(-c2ccc(O)cc2)coc2cc(OC3OC(CO)C(O)C(O)C3O)cc(O)c12 (stereo unspecified) |  | > 100 |  | > 100 µM |  | > 100 | > 100 | > 100 |  | > 100 | > 10 | > 100 | > 100 | > 100 | > 10 µM | > 100 µM | > 100 | > 100 |  | > 100 µM
CC(C)(C)c1ccc(O)c(CN(Cc2cc(C(C)(C)C)ccc2O)C2CCCCC2)c1 |  | 46.5 |  | 24.1 µM |  | 30.4 |  | 29.8 | 28.5 | > 100 |  | 25.1 |  | 27.2 |  | 31.4 µM |  | 45 |  | 37.4 µM
NC(=Nc1nc(-c2ccccn2)cc2ccccc12)c1ccccn1 | 0.197 | > 100 | 0.158 | 0.677 µM and 1.23 µM | 0.941 | > 100 | 0.283 | > 100 | 0.237 | 23 | < 0.0175 | 0.515 | 0.323 | > 100 | 0.0619 µM and < 0.0145 µM | 0.243 µM and 0.722 µM | 0.00636 |  |  | 0.794 µM and 1.15 µM
N#Cc1c(N)nc(N2CCSCC2)c(C#N)c1-c1ccc(O)cc1 | 23.3 | 98 | 15.2 | 30.3 µM | 12.4 | 27.5 | 19 | 49.6 | 21.9 | 58.5 | 17.3 | 48.5 | 15.5 | 35 | 11.2 µM | 38.1 µM | 12.8 | 85.8 | 21.9 | 52.6 µM
CC(=O)NC(CCCCN(Cc1ccccc1)C(=O)N(CCCl)N=O)C(=O)NCc1ccccc1 (stereo unspecified) |  | 65.8 |  | > 58.1 µM |  | 47.9 |  | > 100 |  | > 96.7 |  | 79 |  | > 100 |  | 47.6 µM |  | 36.7 |  | > 44.6 µM
COc1cc(-c2ccc(NC(=O)NC3CC3)c(OC)c2)ccc1NC(=O)NC1CC1 | 2.67 | 27.2 | 3.15 | > 83.8 µM | 11.6 | > 100 | 9.18 | > 100 | 7.25 | > 100 | 2.47 | > 24.7 | > 29.3 | > 100 | 0.446 µM |  | > 100 | > 100 | 12.4 | > 100 µM
CCCCCCN(C)Cc1ccc(OCCOc2ccc(CN(C)CCCCCC)cc2)cc1 | 1.47 | 3.01 | 1.35 | 2.87 µM | 1.22 | 2.84 | 1.04 | 2.5 | 1.53 | 3.19 | 1.62 | 25.4 | 1.45 | 2.88 | 1.04 µM | 11.6 µM | 1.32 | 3.26 | 0.448 | 1.84 µM
COc1cc2ncn(-c3cc(OCc4ccccc4C(F)(F)F)c(C(C)=O)s3)c2cc1OC | > 25 | > 25 | > 25 | > 25 µM | 24.2 | > 25 | 17.6 | > 25 | > 25 | > 25 | > 25 | > 25 | > 25 | > 25 | > 25 µM | > 25 µM | > 25 | > 25 | > 25 | > 25 µM
